The values that follow come from ChEMBL document CHEMBL3525963, “Tissue distribution and elimination of [14C]apixaban in rats” (Drug Metab Dispos, 2011).

A short description of data set [1]: Drug level in feces of Sprague-Dawley rat treated with [14C]apixaban at 30 mg/kg, po assessed as compound level by HPLC method. As to conditions: in vivo.
Data set [2] can be described thus: Drug level in urine of Sprague-Dawley rat treated with [14C]apixaban at 30 mg/kg, po assessed as compound level by HPLC method. Conditions: in vivo.

Take `NC(=O)c1nn(-c2ccc(O)cc2)c2c1CCN(c1ccc(N3CCCC[14C]3=O)cc1)C2=O`: the Compound recovery is 13% in data set [1] and 2% in data set [2].
